This is an account of results in patent publication US20230278953A1, “WATER SOLUBLE PRODRUGS OF PTBA FOR USE IN HDAC INHIBITION AND ENHANCING RENAL RECOVERY FOLLOWING ACUTE KIDNEY INJURY” (KLOTHO THERAPEUTICS, INC., priority 2020, published 2023).

One may read the kinetic solubility as solubility judged after dilution from a stock solution rather than from solid.

Data set [1] in a line: Determination of Kinetic Solubility. Type of data set: physicochemical. Particulars: phosphate-buffered saline, aqueous buffer, kinetic from dmso stock; PBS pH 7.4, 2% final DMSO, 25° C., two hours; effective range approximately 2-400 μM. On the procedure:
A 20 mM stock solution of the test compound in 100% DMSO dilutions were prepared to a theoretical concentration of 400 μM in duplicates in phosphate-buffered saline pH 7.4 (138 mM NaCl, 2.7 mM KCl, 10 mM K-phosphate) with 2% final DMSO. The experimental compound dilutions in PBS were further allowed to equilibrate at 25° C. on a thermostatic shaker for two hours and then filtered through HTS filter plates using a vacuum manifold. The filtrates of test compounds were diluted 2-fold with acetonitrile with 2% DMSO before measuring.
In parallel, compound dilutions in 50% acetonitrile/PBS were prepared to theoretical concentrations of 0 μM (blank), 10 μM, 25 μM, 50 μM, 100 μM, and 200 μM with 2% final DMSO to generate calibration curves. Ondansetron was used as reference compound to control proper assay performance 200 μl of each sample was transferred to 96-well plate and measured in 200-550 nm range with 5 nm step.
The concentrations of compounds in PBS filtrate were calculated using a dedicated Microsoft Excel calculation script. Proper absorbance wavelengths for calculations were selected for each compound manually based on absorbance maximums (absolute absorbance unit values for the minimum and maximum concentration points within 0-3 OD range). Each of the final datasets was additionally visually evaluated by the operator and goodness of fit (R2) was calculated for each calibration curve.

The test system of data set [2] is Ischemia-Reperfusion Induced Acute Kidney Injury (IRI-AKI). In words: Ischemia-Reperfusion Induced Acute Kidney Injury (IRI-AKI) in rats. Type of data set: in vivo, Sprague Dawley male rats. Particulars: 10 mg/kg IV, seven days repeated; 60 minutes bilateral renal occlusion; 3 days after IRI; vs Vehicle treated group. On the procedure:
The aim of the study was to investigate the efficacy of test compounds in the model of Ischemia-Reperfusion Induced Acute Kidney Injury (IRI-AKI) in Sprague Dawley male rats. IRI-AKI model was developed in experimental animals by applying bilateral renal occlusion. The duration of the occlusion was equal 60 minutes. For instance, rhe effects of seven days repeated intravenous (IV) administration of compound 22 of 10 mg/kg on pathology dynamics in rats exposed to IRI-AKI was assessed. […] Serum analysis for creatinine was performed one day prior to ischemia-reperfusion surgery, 24 hours after, and on the 3rd, 5th, and 7th day after IRI-AKI intervention. Study design, animal selection, handling and treatment were all in accordance with the CRO's study protocols and Institutional Animal Care and Use Guidelines Animal treatment and serum samples preparation were conducted by the Animal Laboratory personnel at the CRO. 28 male Sprague Dawley rats 11-14 weeks old were randomized by body weight All experimental animal were anesthetized prior to surgical intervention by Telazol at the dose of 40 mg/kg body weight and Xylazine at the dose of 7 mg/kg body weight. Acute renal injury model was achieved by performing bilateral renal occlusion. […] Creatinine was measured using mModified Jaffe's method, without deproteinization. […]

In data set [3] the test system is cisplatin-induced acute kidney injury (CI-AKI). Kind of data set: cisplatin-induced acute kidney injury (CI-AKI) mouse model, Compound 22. Format: in vivo, C57BL/6J mice. Conditions: for gradual recovery of mean body weight: cisplatin 11 mg/kg IP Day 0. On the procedure: The aim of the study was to investigate the efficacy of test compound(s) in a (mouse) model for acute kidney injury. Specifically, the study investigated the efficacy of test compound(s) in cisplatin-induced acute kidney injury (CI-AKI) mouse model. For example, the effect of daily repeated intraperitoneal (IP) administration of Compound 22 at doses of 50 mg/kg for 7 consecutive days in four different treatment regimens on development of pathology in mice in CI-AKI model was evaluated. Serum analysis for urea (BUN) was performed on the 5th day and 12th days after cisplatin administration. The mean body weight loss per group was calculated every day of the study as percentage loss of initial (day 0) weight for each individual animal.
Study design, animal selection, handling and treatment were all in accordance with the CRO's study protocols and Institutional Animal Care and Use Guidelines Animal treatment and serum samples preparation were conducted by the Animal Laboratory personnel at the CRO. 100 female C57BL/6J mice 11-14 weeks old were randomized by body weight and divided into five groups, 20 animals each. Body weights ranged from 16.9 to 22.5 g with an average body weight across all groups 19.54 g (SD=1.04; CV=5.3%). Each mouse was treated with a single dose via IP route of administration with cisplatin at the dose of 11 mg/kg on the day 0 of the study. The mice in Group 2 and 4 were repeatedly treated with Compound 22 at the dose of 50 mg/kg with an interval of 24 h for seven consecutive days starting from Day 2 or Day 0 of the study, respectively. […]
To induce acute kidney injury, Cisplatin was administered without dilution as a factory-made 1 mg/ml solution for infusion at the injection volume of 11 ml/kg for the dose of 11 mg/kg. […] Urea (BUN) was determined in the serum using a commercial kit according to the manufacturer's instructions. […] The rate of absorbance change at λ=340 nm is proportional to the urea concentration. […]

Data set [4] has as its system cisplatin induced acute kidney injury (CI-AKI). In words: cisplatin induced acute kidney injury (CI-AKI) in mice, Compound 3. Type of data set: in vivo, C57BL/6J mice. On the procedure: The aim of the study was to investigate the efficacy of test compounds in the model of cisplatin induced acute kidney injury (CI-AKI) in mice.
Serum analysis for urea (BUN) was performed on the 5th day and 9th days after cisplatin administration. The mean body weight loss per group was calculated every day of the study as percentage loss of initial (day 0) weight for each individual animal.
Study design, animal selection, handling and treatment were all in accordance with the CRO's study protocols and Institutional Animal Care and Use Guidelines Animal treatment and serum samples preparation were conducted by the Animal Laboratory personnel at the CRO. 60 female C57BL/6J mice 9-12 weeks old were randomized by body weight and divided into 2 groups, 30 animals each. Body weights ranged from 13.9 to 22.0 g with an average body weight across all groups 17.75 g (SD=1.30; CV=7.3%). Each mouse was treated with a single dose via IP route of administration with cisplatin at the dose of 11 mg/kg on the day 0 of the study. […] The mice in Group 1 remained untreated after the cisplatin injection until the terminal sacrifice.
Cisplatin was administered without dilution as a factory-made 1 mg/ml solution for infusion at the injection volume of 11 ml/kg for the dose of 11 mg/kg. […] Only freshly prepared formulation was used for each dosing; each working formulation batch was prepared immediately prior to the administration. The working formulations were sterile filtered using 0.2 μm cellulose acetate syringe filters before injections. The dosing volume for the test compound was 5 ml/kg of body weight. The working formulations were administered as transparent clear solutions. Intraperitoneal (IP) route of administration was used in the study. Urea (BUN) was determined in the serum using a commercial kit according to the manufacturer's instructions. […] The rate of absorbance change at λ=340 nm is proportional to the urea concentration. […] Creatinine was measured using mModified Jaffe's method, without deproteinization. […]

The mark [5] stands for this setting: 50 mg/kg IP, 5th day after the cisplatin injection.

≈ marks a conversion by molar mass, not a printed value. Bounds are passed on as bounds.

For the molecule `NCCC[C@@H](NC(=O)CCCSc1ccccc1)C(=O)N[C@H](CCC(=O)O)C(=O)O.O=C(O)C(F)(F)F` [Compound 11], the kinetic solubility at 2 h in data set [1] amounted to 391 µM.
With `O=C(O)CC[C@@H](NC(=O)CCCSc1ccccc1)C(=O)O` [Compound 5], the solubility (kinetic) at 2 h in data set [1] turned out to be 396 µM (≈ 129 µg/mL). The solubility kinetic at 2 h values of the last two molecules are within 1.5-fold of each other.
The same measure, in the same setting: the figure for `CCN1CCC(OC(=O)CCCSc2ccccc2)CC1.O=C(O)C(F)(F)F` [Compound 1, 1-ethylpiperidin-4-yl 4-(phenylsulfanyl)butanoate] is over 400 µM.
The same measure, in the same setting: for `O=C(CCCSc1ccccc1)OCCNCCO` [Compound 16] the value was over 400 µM.
Molecule `C[N+](C)(C)CCOC(=O)CCCSc1ccccc1.[Cl-]` [Compound 22, N,N,N-trimethyl-2-{[4-(phenylsulfanyl)butanoyl]oxy}ethan-1-aminium chloride] registered a solubility (kinetic) at 2 h in data set [1] of 398 µM. Moreover, the “Creatinine level in serum” value in data set [2] is “significantly decreased”. Further, the entries for the “gradual recovery of mean body weight” value in data set [3] (G2-G3: 50 mg/kg IP once or twice a day for seven days starting Day 2) and in data set [3] (G4-G5: 50 mg/kg IP once or twice a day for seven days starting Day 0) were “beginning from the fifth day of the study” and “beginning from the seventh day of the study”, respectively. Further, the “mean level of urea in serum compared to G1” value in data set [3] (G2-G5, 50 mg/kg IP, 5th day after the cisplatin injection, vs untreated G1) is given as “significantly less”.
Regarding `O=C(CCCSc1ccccc1)OCC(O)CO` (stereo not shown) [Compound 6], the solubility (kinetic) at 2 h in data set [1] was over 400 µM.
Still for that read-out and setting: the figure for `CN1CCN(CCOC(=O)CCCSc2ccccc2)CC1.O=C(O)C(F)(F)F` [Compound 13] is over 400 µM; for `N[C@@H](COC(=O)CCCSc1ccccc1)C(=O)N[C@H](CCC(=O)O)C(=O)O.O=C(O)C(F)(F)F` [Compound 21] it is over 400 µM; for `NCCCC[C@@H](N)C(=O)NCCOC(=O)CCCSc1ccccc1.O=C(O)C(F)(F)F.O=C(O)C(F)(F)F` [Compound 23] it is 399 µM.
On the same count and under the same terms, the figure for `NCCC[C@@H](NC(=O)[C@@H](CCC(=O)O)NC(=O)CCCSc1ccccc1)C(=O)O.O=C(O)C(F)(F)F` [Compound 12] is over 400 µM.
On the same count and under the same terms, the figure for `O=C(CCCSc1ccccc1)O[C@@H]1CCNC1.O=C(O)C(F)(F)F` [Compound 17] is over 400 µM; for `O=C(O)C[C@@H](NC(=O)CCCSc1ccccc1)C(=O)O` [Compound 14] it is 387 µM (≈ 120 µg/mL).
On to `O=C(CCCSc1ccccc1)OCCOCCO` [Compound 7], for which, in data set [1], the solubility (kinetic) at 2 h turned out to be 385 µM (≈ 109 µg/mL).
On the same count and under the same terms, for `CC(C)[C@@H](N)C(=O)NCCCOC(=O)CCCSc1ccccc1` [Compound 24] the value was 390 µM (≈ 137 µg/mL); for `O=C(O)CC[C@H](NC(=O)[C@H](CO)NC(=O)CCCSc1ccccc1)C(=O)O` [Compound 20], over 400 µM; for `O=C(O)C[C@@H](OC(=O)CCCSc1ccccc1)C(=O)O` [Compound 19], over 400 µM.
On the same count and under the same terms, the figure for `NCCC[C@H](NC(=O)CCCSc1ccccc1)C(=O)N[C@@H](CC(=O)O)C(=O)O.O=C(O)C(F)(F)F` [Compound 9] is 383 µM; for `CN1CCC(C)(OC(=O)CCCSc2ccccc2)CC1.O=C(O)C(F)(F)F` [Compound 2, 1,4-dimethylpiperidin-4-yl 4-(phenylsulfanyl)butanoate] it is over 400 µM.
Same read-out and setting: for `C[C@H](CN(C)C)OC(=O)CCCSc1ccccc1.O=C(O)C(F)(F)F` [Compound 18] the value was 362 µM.
Consider `CN(C)CCOC(=O)CCCSc1ccccc1` [Compound 3, 2-(dimethylamino)ethyl 4-(phenylsulfanyl)butanoate], for which, in data set [4] (setting [5]), the “mean level of creatinine in serum compared to G1” value is on record as “significantly less” and the “mean level of urea in serum compared to G1” value is recorded as “significantly less”. Besides, in data set [4] (G2: 50 mg/kg IP every 24 h for seven days starting Day 2, cisplatin 11 mg/kg IP Day 0), the “gradual recovery of mean body weight” value is listed as “beginning from the sixth day of the study”.
In data set [1], `CN1CC2(CC(OC(=O)CCCSc3ccccc3)C2)C1` [Compound 15] yielded a kinetic solubility at 2 h of at least 400 µM.
Still for that read-out and setting: for `Cl.NCCC[C@@H](NC(=O)CCCSc1ccccc1)C(=O)O` [Compound 8] the value was 383 µM.
